Data taken from US12173018B2, “Penicillin-binding protein inhibitors” (priority 2018, dated 2024).
Converted amounts (≈) assume the structure as drawn. Like-named read-outs stand apart in the source and are kept apart here.

What was measured:
E. coli PBP3 = E. coli PBP3 (Escherichia coli (strain K12), UniProt P0AD68); assay: E. coli PBP3 Bocillin-FL fluorescence polarization competition binding assay
In short: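 This was a fluorescence polarization competition with fluorescent penicillin Bocillin-FL (0.1 μM final), read at 490/520 nm for 60 min immediately after its addition. The buffer was Hepes pH 8.0 with 300 mM NaCl and 5% glycerol, containing 1.5 μM PBP and test inhibitor up to 1000 μM. Potency is expressed as EC50 for reducing probe binding.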

E. coli PBP2 = E. coli PBP2 (Escherichia coli (strain K12), UniProt P0AD65); assay: E. coli PBP2 Bocillin-FL fluorescence polarization competition binding assay; conditions: fluorescence polarization competition binding with Bocillin-FL; read-out: E. coli K12 PBP2 Potency (EC50)
In short: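 Purified PBP2 at 1.5 μM final was preincubated with boronic acid inhibitor, then Bocillin-FL added to 0.1 μM final in Hepes pH 8.0/NaCl/glycerol buffer. Polarization was monitored 90 min; the concentration halving probe binding is reported as EC50.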

E. coli PBP1a = E. coli PBP1a (Escherichia coli (strain K12), UniProt P02918); assay: Radioligand competition binding assay with 14C-labeled boronic acid probe, PBP1a
Source text: To determine the ability of boronic acid-based test PBP inhibitors to bind Penicillin Binding Proteins (PBPs), a radio-labelled boronic acid PBP inhibitor
[drawing 751] was used in competition binding assays to determine boronic acid PBP inhibitor binding to PBP1a or PBP1b from Escherichia coli. PBP1a and PBP1b were purified as described previously (Bertsche, U.; et al., J. Biol. Chem. 2005, 280 (45), 38096-38101; Born, P.; et al., J. Biol. Chem. 2006. 281 (37), 26985-26993). To establish assay conditions for competition binding, an enzyme titration/saturation binding experiment was performed. Saturation binding was performed in a buffer comprised of 20 mM Tris (pH 7.5), 500 mM NaCl and 0.1% (v/v) TritonX-100, with PBP1a/PBP1b at a final concentration of 0.1 μM and Compound A at final concentrations ranging from 0-100 μM. Mixtures were incubated for 60 minutes, then applied to Zeba Spin Desalting columns or plates (ThermoFisher Scientific) and centrifuged at 1000-1500×g for 2 minutes. The flow through, containing PBP bound with Compound A, was recovered and 100 μL mixed with 5 mL of UltimaGold liquid scintillation cocktail (Perkin Elmer), and the radioactivity counted using a Beckman Coulter LS 6500 Multipurpose scintillation counter. PBP binding of Compound A approached saturation at 20 μM of ^14C-labeled probe. The competition binding assay was validated using the beta-lactam ampicillin, with Compound A at a final concentration of 20 μM, PBP1a/PBP1b at a final concentration of 0.1 μM. PBP1a/PBP1b was incubated with ampicillin in a 96-well microplate for 60 minutes, then Compound A was added and the mixtures incubated for an additional 60 minutes. The mixtures were then applied to Zeba Spin desalting plates and centrifuged at 1000×g for 2 minutes. The flow through was recovered and 100 μl mixed with 5 ml of UltimaGold liquid scintillation cocktail and the radioactivity counted. […] Binding assays with boronic acid PBP inhibitors were performed in an identical fashion. The potency of boronic acid PBP inhibitors was reported as the EC50 value.

[1] = tested on: engineered strain of Escherichia coli harboring CTX-M15; assay: microbe, parasite or virus in culture; assay type: cell-based; conditions: Escherichia coli, read-out: Microbiological Activity (MIC in mg/L), E. coli DH5α/pLBII-CTX-M15, engineered strain producing CTX-M15
[2] = tested on: E. coli DH5α empty pLBII vector control strain; assay: microbe, parasite or virus in culture; assay type: cell-based, Escherichia coli; conditions: Escherichia coli, read-out: Microbiological Activity (MIC in mg/L), E. coli DH5α/pLBII
In short: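 MIC was the lowest concentration visibly free of growth after 16–20 h at 37 °C, against 5×10^5 CFU/mL of the empty-pLBII DH5α control strain. Twofold compound dilutions were made in cation-adjusted Mueller-Hinton broth.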

E. coli ATCC 25922 = assay: Broth microdilution MIC, E. coli ATCC 25922; assay type: cell-based; conditions: Escherichia coli
In short: (§1)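 CLSI broth microdilution in cation-supplemented Mueller-Hinton broth; 2-fold compound dilutions inoculated at 5×10^5 CFU/mL from a 3-5 h log-phase culture. Plates incubated 16-20 hours at 37° C; MIC read visually as lowest concentration with no growth.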

E. coli AG100 = assay: Broth microdilution MIC, E. coli AG100 (wild-type parent); assay type: cell-based; conditions: Escherichia coli; wild-type parent E. coli AG100, broth microdilution; read-out: MIC E. coli AG100
In short: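 Starting inoculum of 5×10^5 CFU/mL, from colonies grown 3-5 h in Mueller-Hinton broth with divalent cations, added to two-fold compound dilution series.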

E. coli 901C = assay: microbe, parasite or virus in culture; assay type: cell-based; conditions: Escherichia coli; hyper-permeable E. coli 901C, broth microdilution; read-out: MIC E. coli 901C
In short: as §1

E. coli AG100A = assay: microbe, parasite or virus in culture; assay type: cell-based; conditions: Escherichia coli, read-out: MIC E. coli AG100A
In short: as §1

E. coli D22 = assay: microbe, parasite or virus in culture; assay type: cell-based; conditions: Escherichia coli; hyper-permeable E. coli D22, broth microdilution; read-out: MIC E. coli D22
In short: as §1

K. pneumoniae SI-117 = assay: microbe, parasite or virus in culture; assay type: cell-based; conditions: Klebsiella pneumoniae, SI117, read-out: MIC K. pneumoniae SI-117
In short: as §1

K. pneumoniae UMM = assay: microbe, parasite or virus in culture; assay type: cell-based; conditions: Klebsiella pneumoniae; K. pneumoniae UMM producing SHV-5 and KPC-2; read-out: MIC K. pneumoniae UMM
In short: as §1

[3] = tested on: P. aeruginosa (ΔmexAB-oprM); assay: microbe, parasite or virus in culture; assay type: cell-based; conditions: Pseudomonas aeruginosa, read-out: MIC P. aeruginosa ΔmexAB-OprM
In short: as §1

P. aeruginosa ATCC 35151 = assay: microbe, parasite or virus in culture; assay type: cell-based; conditions: Pseudomonas aeruginosa, ATCC35151; hyper-permeable P. aeruginosa ATCC 35151; read-out: MIC P. aeruginosa ATCC 35151
In short: as §1

K. pneumoniae 848844 = assay: microbe, parasite or virus in culture; assay type: cell-based, Klebsiella pneumoniae; conditions: Klebsiella pneumoniae; K. pneumoniae 848844 producing SHV-11 and KPC-2; read-out: MIC K. pneumoniae 848844
In short: as §1

P. aeruginosa ATCC 27853 = assay: Broth microdilution MIC, P. aeruginosa ATCC 27853; assay type: cell-based; conditions: Pseudomonas aeruginosa
Experimental: To determine the ability of test compounds to potentiate the inhibition of the growth of bacterial strains, classic cell based broth microdilution minimum inhibitory concentration (MIC) assays were employed. MIC assays are performed according to CLSI methods except where otherwise noted (CLSI, 2011 and CLSI, 2009). The reference type strain E. coli ATCC 25922, the wild-type parent strain E. coli AG100, the hyper-permeable E. coli 901C and E. coli D22 and the E. coli AG100A strain lacking the acrAB efflux pump encoding genes were used to determine the ability of the PBP inhibitors to penetrate the outer membrane of gram-negative bacteria and inhibit bacterial growth. […] The P. aeruginosa PAO1, P. aeruginosa ATCC 27853 and A. baumannii ATCC 19606, along with the hyper-permeable P. aeruginosa ATCC 35151 and an engineered efflux pump-compromised strain of P. aeruginosa (ΔmexAB-oprM) were used to determine the ability of PBP inhibitors to penetrate the outer membrane of P. aeruginosa and A. baumannii and assess antibacterial activity against these important gram-negative organisms.
Briefly, cryo-preserved bacterial cultures of challenge strains are streaked for isolation on appropriate agar medium, in this case Mueller Hinton II agar. Following incubation to allow growth of the colonies, plates are sealed with parafilm and stored refrigerated for up to two weeks. For preparation of assay inoculum and to ensure low variability, at least 5 colonies are picked from the agar plates with an inoculating loop and aseptically transferred to a culture tube containing 3 mL of Mueller-Hinton Broth (supplemented with divalent cations to required levels based on Manufacturers' certification). The broth culture is grown for 3-5 hours at 37° C. with shaking at 200 rpm. Meanwhile, 2-fold serial dilutions of test compounds are conducted in a 96 well plate with a final volume of 75 μL per well at 2-fold the final desired concentration. After the dilution plates are set up the growing cultures are then diluted in a cuvette containing MH II broth and the optical density is measured at 600 nm. The Inoculum is diluted such that 75 μL of this culture in Mueller-Hinton Broth results in a starting bacterial concentration of 5×10^5 CFU/mL when added to the dilution plates. The plates are incubated for 16-20 hours at 37° C. The MIC values are read visually as the lowest concentration well with no bacterial growth.

A. baumannii ATCC 19606 = assay: Broth microdilution MIC, A. baumannii ATCC 19606; assay type: cell-based; conditions: Acinetobacter baumannii
In short: as §1

[4] = ATCC25922, read-out: MIC E. coli 25922
[5] = ATCC27853, read-out: MIC P. aeruginosa ATCC 27853
[6] = ATCC19606, read-out: MIC A. baumannii ATCC 19606
[7] = ATCC25922, E. coli ATCC 25922, broth microdilution, read-out: MIC E. coli 25922
[8] = ATCC27853, P. aeruginosa ATCC 27853, broth microdilution, read-out: MIC P. aeruginosa ATCC 27853
[9] = ATCC19606, A. baumannii ATCC 19606, broth microdilution, read-out: MIC A. baumannii ATCC 19606

Sequence of E. coli PBP3 (P0AD68 whole entry): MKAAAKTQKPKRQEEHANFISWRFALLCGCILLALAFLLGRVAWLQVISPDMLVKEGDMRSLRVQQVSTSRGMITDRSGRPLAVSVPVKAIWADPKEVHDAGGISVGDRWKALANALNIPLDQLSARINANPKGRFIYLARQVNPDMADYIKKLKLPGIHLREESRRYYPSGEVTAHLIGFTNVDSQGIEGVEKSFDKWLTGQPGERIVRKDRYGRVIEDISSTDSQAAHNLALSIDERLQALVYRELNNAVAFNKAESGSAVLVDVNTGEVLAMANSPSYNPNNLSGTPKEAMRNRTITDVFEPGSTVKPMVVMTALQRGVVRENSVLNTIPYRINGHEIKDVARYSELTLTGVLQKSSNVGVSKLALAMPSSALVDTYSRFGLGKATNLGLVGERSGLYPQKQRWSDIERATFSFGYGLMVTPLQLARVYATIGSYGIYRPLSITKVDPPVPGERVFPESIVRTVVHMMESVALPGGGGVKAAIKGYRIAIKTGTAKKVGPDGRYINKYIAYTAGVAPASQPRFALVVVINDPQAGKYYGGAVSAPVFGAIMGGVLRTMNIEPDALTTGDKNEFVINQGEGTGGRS
Sequence of E. coli PBP1a (P02918 whole entry): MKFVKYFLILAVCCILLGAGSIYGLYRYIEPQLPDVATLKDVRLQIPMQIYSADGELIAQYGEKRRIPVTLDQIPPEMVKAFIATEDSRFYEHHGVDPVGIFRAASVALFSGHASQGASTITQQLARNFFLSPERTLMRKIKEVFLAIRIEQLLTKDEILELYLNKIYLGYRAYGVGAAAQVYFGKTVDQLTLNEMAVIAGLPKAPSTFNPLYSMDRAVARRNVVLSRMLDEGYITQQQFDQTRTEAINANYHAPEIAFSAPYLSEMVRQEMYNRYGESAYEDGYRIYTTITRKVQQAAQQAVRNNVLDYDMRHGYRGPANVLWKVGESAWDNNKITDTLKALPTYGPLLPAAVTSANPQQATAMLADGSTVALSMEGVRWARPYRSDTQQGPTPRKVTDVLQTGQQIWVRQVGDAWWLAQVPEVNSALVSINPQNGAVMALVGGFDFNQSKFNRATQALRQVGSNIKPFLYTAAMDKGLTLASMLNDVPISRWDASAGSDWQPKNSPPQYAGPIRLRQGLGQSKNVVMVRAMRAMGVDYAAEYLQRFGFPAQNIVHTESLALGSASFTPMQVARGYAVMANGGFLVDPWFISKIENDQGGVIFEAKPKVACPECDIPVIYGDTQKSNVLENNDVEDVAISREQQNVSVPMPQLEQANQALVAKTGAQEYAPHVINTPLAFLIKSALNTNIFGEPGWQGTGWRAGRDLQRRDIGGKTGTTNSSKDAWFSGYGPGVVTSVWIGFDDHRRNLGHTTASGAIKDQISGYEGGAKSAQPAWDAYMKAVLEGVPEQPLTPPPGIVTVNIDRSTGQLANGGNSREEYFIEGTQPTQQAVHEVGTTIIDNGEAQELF
Sequence of E. coli PBP2 (P0AD65 whole entry): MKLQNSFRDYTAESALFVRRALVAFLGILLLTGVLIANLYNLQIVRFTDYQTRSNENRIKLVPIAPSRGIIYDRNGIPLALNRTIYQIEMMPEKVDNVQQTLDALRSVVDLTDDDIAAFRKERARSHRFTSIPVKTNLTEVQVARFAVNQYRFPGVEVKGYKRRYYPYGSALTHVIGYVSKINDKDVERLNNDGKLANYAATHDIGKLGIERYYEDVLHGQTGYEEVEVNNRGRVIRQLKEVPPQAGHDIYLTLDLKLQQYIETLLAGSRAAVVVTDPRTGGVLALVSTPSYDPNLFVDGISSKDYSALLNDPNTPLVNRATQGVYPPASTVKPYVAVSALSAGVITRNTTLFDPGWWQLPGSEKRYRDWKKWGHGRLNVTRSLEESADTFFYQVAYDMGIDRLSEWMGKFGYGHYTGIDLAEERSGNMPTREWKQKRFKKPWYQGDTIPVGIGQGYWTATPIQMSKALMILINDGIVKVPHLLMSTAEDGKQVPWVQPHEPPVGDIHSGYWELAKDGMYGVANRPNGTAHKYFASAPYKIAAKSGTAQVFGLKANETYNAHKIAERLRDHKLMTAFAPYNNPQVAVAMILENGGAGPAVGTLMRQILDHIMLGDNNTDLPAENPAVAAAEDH

CCN1CCN(C(=O)NC(C(=O)N[C@H]2Cc3cccc(C(=O)O)c3OB2O)c2ccc(OC)nc2)C(=O)C1=O (stereo partly drawn) [Example 34, (3R)-3-(2-(4-ethyl-2,3-dioxopiperazine-1-carboxamido)-2-(6-methoxypyridin-3-yl)acetamido)-2-hydroxy-3,4-dihydro-2H-benzo[e][1,2]oxaborinine-8-carboxylic acid]
EC50 (E. coli PBP3): 30 to 500 µM
EC50 (E. coli PBP2): > 500 µM
EC50 (E. coli PBP1a): < 10 µM
MIC [1]: 128 to 256 mg/L (≈ 237 to 475 µM)
MIC [2]: 128 to 256 mg/L (≈ 237 to 475 µM)

CCN1C[C@H](CCN)N(C(=O)NC(C(=O)N[C@H]2Cc3cccc(C(=O)O)c3OB2O)c2ncc(O)cc2F)C(=O)C1=O (stereo partly drawn) [Example 240, (3R)-3-(2-((S)-6-(2-aminoethyl)-4-ethyl-2,3-dioxopiperazine-1-carboxamido)-2-(3-fluoro-5-hydroxypyridin-2-yl)acetamido)-2-hydroxy-3,4-dihydro-2H-benzo[e][1,2]oxaborinine-8-carboxylic acid]
MIC (E. coli ATCC 25922; [4]): > 128 µg/mL
MIC (E. coli AG100): > 128 µg/mL
MIC (E. coli 901C): 8 to 16 µg/mL
MIC (E. coli AG100A): 8 to 16 µg/mL
MIC (E. coli D22): 8 to 16 µg/mL
MIC (K. pneumoniae SI-117): > 128 µg/mL
MIC (K. pneumoniae UMM): > 128 µg/mL
MIC [3]: > 128 µg/mL
MIC (P. aeruginosa ATCC 35151): 8 to 16 µg/mL
MIC (K. pneumoniae 848844): > 128 µg/mL
MIC (P. aeruginosa ATCC 27853; [5]): > 128 µg/mL
MIC (A. baumannii ATCC 19606; [6]): > 128 µg/mL

CNCCN1CCN(C(=O)N[C@@H](C(=O)N[C@H]2Cc3ccc(F)c(C(=O)O)c3OB2O)c2ccc(O)c(O)c2Cl)C(=O)C1=O [Example 242, (R)-3-((R)-2-(2-chloro-3,4-dihydroxyphenyl)-2-(4-(2-(methylamino)ethyl)-2,3-dioxopiperazine-1-carboxamido)acetamido)-7-fluoro-2-hydroxy-3,4-dihydro-2H-benzo[e][1,2]oxaborinine-8-carboxylic acid]
MIC (E. coli ATCC 25922; [4]): 8 to 16 µg/mL
MIC (E. coli AG100): 0.5 to 1 µg/mL
MIC (E. coli 901C): 0.5 to 1 µg/mL
MIC (E. coli AG100A): 0.5 to 1 µg/mL
MIC (E. coli D22): 0.5 to 1 µg/mL
MIC (K. pneumoniae SI-117): 2 to 4 µg/mL
MIC (K. pneumoniae UMM): 0.5 to 1 µg/mL
MIC [3]: < 0.25 µg/mL
MIC (P. aeruginosa ATCC 35151): < 0.25 µg/mL
MIC (K. pneumoniae 848844): 0.5 to 1 µg/mL
MIC (P. aeruginosa ATCC 27853; [5]): 0.5 to 1 µg/mL
MIC (A. baumannii ATCC 19606; [6]): 0.5 to 1 µg/mL

CCN1CCN(C(=O)NC(C(=O)N[C@H]2Cc3cccc(C(=O)O)c3OB2O)c2ncc(C(N)=O)cc2F)C(=O)C1=O (stereo partly drawn) [Example 246, (3R)-3-(2-(5-carbamoyl-3-fluoropyridin-2-yl)-2-(4-ethyl-2,3-dioxopiperazine-1-carboxamido)acetamido)-2-hydroxy-3,4-dihydro-2H-benzo[e][1,2]oxaborinine-8-carboxylic acid]
EC50 (E. coli PBP3): 30 to 500 µM
MIC (E. coli ATCC 25922; [7]): > 128 µg/mL
MIC (E. coli AG100): > 128 µg/mL
MIC (E. coli 901C): 2 to 4 µg/mL
MIC (E. coli AG100A): 32 to 64 µg/mL
MIC (E. coli D22): 32 to 64 µg/mL
MIC (K. pneumoniae SI-117): > 128 µg/mL
MIC (K. pneumoniae UMM): > 128 µg/mL
MIC [3]: 32 to 64 µg/mL
MIC (P. aeruginosa ATCC 35151): 2 to 4 µg/mL
MIC (P. aeruginosa ATCC 27853; [8]): > 128 µg/mL
MIC (A. baumannii ATCC 19606; [9]): > 128 µg/mL

CCN1CCN(C(=O)NC(C(=O)N[C@H]2Cc3cccc(C(=O)O)c3OB2O)c2ccc(O)c([N+](=O)[O-])c2)C(=O)C1=O (stereo partly drawn) [Example 247, (3R)-3-(2-(4-ethyl-2,3-dioxopiperazine-1-carboxamido)-2-(4-hydroxy-3-nitrophenyl)acetamido)-2-hydroxy-3,4-dihydro-2H-benzo[e][1,2]oxaborinine-8-carboxylic acid]
EC50 (E. coli PBP3; fluorescence polarization competition binding with Bocillin-FL, read-out: E. coli K12 PBP3 Potency): < 30 µM
MIC (E. coli ATCC 25922; [7]): 32 to 64 µg/mL
MIC (E. coli AG100): 32 to 64 µg/mL
MIC (E. coli 901C): < 0.25 µg/mL
MIC (E. coli AG100A): 2 to 4 µg/mL
MIC (E. coli D22): 2 to 4 µg/mL
MIC (K. pneumoniae SI-117): > 128 µg/mL
MIC (K. pneumoniae UMM): > 128 µg/mL
MIC [3]: 8 to 16 µg/mL
MIC (P. aeruginosa ATCC 35151): 0.5 to 1 µg/mL
MIC (P. aeruginosa ATCC 27853; [8]): > 128 µg/mL
MIC (A. baumannii ATCC 19606; [9]): > 128 µg/mL
